Assay results reported in the supplement of paper PMC10307832.

Legend:
Shikonin = compound: CC(C)=CC[C@@H](O)C1=CC(=O)c2c(O)ccc(O)c2C1=O [Shikonin]; experiment: relative viability (nuclei count vs DMSO), 5 days (fraction); higher = more cells survive
In short: (§1)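 In 1536-well plates, lung cancer cell lines rested overnight at 37 °C before five library-drug doses (not always all listed), √10 apart, were pinned onto vehicle-anchored plates. Nuclei were counted with MetaXpress from 4× Hoechst images taken after 5 days without medium change. Viability compares treated-well with vehicle-well nuclei as a median over plates, and plates needed control CV below 25% plus at least one doubling to pass.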

[1] = compound: CC(C)N(CCCNC(=O)Nc1ccc(C(C)(C)C)cc1)C[C@H]1O[C@@H](n2ccc3c(N)ncnc32)[C@H](O)[C@@H]1O; experiment: as above
In short: as §1

Cell Line	relative viability (Shikonin; 0.01 µM)	relative viability (Shikonin; 0.1 µM)	relative viability (Shikonin; 0.3162 µM)	relative viability (Shikonin; 1 µM)	relative viability ([1]; 0.08 µM)	relative viability ([1]; 0.8 µM)	relative viability ([1]; 2.53 µM)	relative viability ([1]; 8 µM)	relative viability ([1]; 0.253 µM)
NCI-H1793	0.926	1.1	0.85	0.936	0.865	0.861	0.891	0.854	
NCI-H1915	1.07	1.17	1.05	1.06	0.957	0.848	0.947	0.942	1.01
NCI-H1944	0.993	1.06	1.12	0.986	0.979	0.762	0.976	0.936	0.878
NCI-H1975	0.956	0.946	0.955	1.05	0.844	0.594	0.843	0.743	0.837
NCI-H1993	0.915	1.01	0.94	0.974	0.86	0.905	0.919	0.922	
NCI-H2009	0.996	1.11	0.981	0.727	1.01	0.961	0.985	0.934	0.969
NCI-H2023	1.05	1.17	1.19	0.972	0.955	0.977	0.931	0.846	0.864
NCI-H2085	0.992	1.05	0.985	0.983	0.93	1.03	1.02	0.983	0.905
NCI-H2087	1.33	1.02	1.12	1.02	1.08	0.799	1.15	1.07	0.934
NCI-H2126	1.01	1.07	1.07	1.03	0.955	0.942	0.961	0.905	0.918
NCI-H2170	1.01	0.866	1.12	0.99	0.972	0.924	1.02	0.975	0.937
NCI-H2228	1.07	0.991	1.12	1.17	0.925	0.903	0.949	1.09	1
NCI-H2342	0.941	0.943	1.11	0.991	1.01	0.815	1.01	1.05	1.08
NCI-H2347	0.971	1.07	1.06	0.984	1.02	0.935	1.06	0.955	0.963
NCI-H2405	0.998	1.04	1.08	1.02	1.02	0.931	1.06	0.966	0.974
NCI-H3122	1.03	1.07	1.07	1.04	0.978	0.965	0.954	0.993	0.98
PC-3 [JPC-3]	1.1	1.05	1.09	1.07	0.969	0.883	1.03	0.934	1.06
PC-14	1.08	1	1.12	1.11	0.975	0.951	0.967	0.904	0.981
RERF-LC-KJ	1.09	0.986	1.02	1.03	0.951	0.966	0.968	0.912	1.05
SK-LU-1	1.05	1.05	1.21	1.03	1.01	0.989	1.1	0.941	1.06
SK-MES-1	1.04	1.08	1.1	0.962	0.996	0.99	1.02	0.939	0.942
SW 900	0.746	0.918	0.709	0.851	0.787		0.886	0.812	0.705
SW 1573	1.1	0.967	0.894	0.721	0.968	1.07	1.11	0.984	0.966
